# Results reported in US20250034153A1, “TRIAZOLOPYRIMIDINES AS A2A / A2B INHIBITORS” (Incyte Corporation, priority 2019, published 2025).
# Tests used:
# Adenosine A2A = Adenosine A2A (Homo sapiens (Human), UniProt P29274); assay: A2A Tag-lite HTRF assay (Example C); details: Tag-lite Adenosine A2A labeled cells, Red antagonist fluorescent ligand 12.5 nM, one-site competitive binding; read-out: A2A_Ki
# Method: Example C. A2A Tag-Lite® HTRF Assay
# Assays were conducted in black low volume 384-well polystyrene plates (Greiner 784076-25) in a final volume of 10 μL. Test compounds were first serially diluted in DMSO and 100 nl added to the plate wells before the addition of other reaction components. The final concentration of DMSO was 1%. Tag-lite® Adenosine A2A labeled cells (CisBio C1TT1A2A) were diluted 1:5 into Tag-lite buffer (CisBio LABMED) and spun 1200 g for 5 mins. The pellet was resuspended at a volume 10.4× the initial cell suspension volume in Tag-lite buffer, and Adenosine A2A Receptor Red antagonist fluorescent ligand (CisBio L0058RED) added at 12.5 nM final concentration. 10 ul of the cell and ligand mix was added to the assay wells and incubated at room temperature for 45 minutes before reading on a PHERAstar FS plate reader (BMG Labtech) with HTRF 337/620/665 optical module. Percent binding of the fluorescent ligand was calculated; where 100 nM of A2A antagonist control ZM 241385 (Tocris 1036) displaces the ligand 100% and 1% DMSO has 0% displacement. The % binding data versus the log of the inhibitor concentration was fitted to a one-site competitive binding model (GraphPad Prism version 7.02) where the ligand constant=12.5 nM and the ligand Kd=1.85 nM.
# [1] = molecular target: human adenosine A2B receptor (Homo sapiens (Human), UniProt P29275); assay: Adenosine A2B receptor cyclic AMP GS assay (Example B); type: cell-based; details: HEK-293 cells expressing human A2B, agonist NECA 12 nM, cAMP accumulation (FRET); read-out: A2B_cAMP_EC50
# Sequence of human adenosine A2B receptor (P29275 whole entry): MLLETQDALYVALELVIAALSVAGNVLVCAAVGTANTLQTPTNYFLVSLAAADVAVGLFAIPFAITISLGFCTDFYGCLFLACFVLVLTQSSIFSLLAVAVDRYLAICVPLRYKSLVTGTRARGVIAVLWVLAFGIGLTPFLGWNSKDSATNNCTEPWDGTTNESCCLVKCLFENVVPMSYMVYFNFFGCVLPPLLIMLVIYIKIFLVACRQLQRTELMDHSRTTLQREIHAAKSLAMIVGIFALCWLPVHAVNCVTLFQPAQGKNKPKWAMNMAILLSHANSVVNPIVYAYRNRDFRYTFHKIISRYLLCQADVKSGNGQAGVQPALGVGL
# Method: Example B. Adenosine A2B Receptor Cyclic AMP GS Assay
# Stably transfected HEK-293 cells expressing the human adenosine A2B receptor (Perkin Elmer) were maintained in MEM culture medium with 10% FBS and 100 μg/ml Geneticin (Life Technologies). 18 to 24 hours prior to assay, geneticin was removed from culture. The cisbio cAMP-GS Dynamic kit utilizing the FRET (Fluorescence Resonance Energy Transfer) technology was used to measure cAMP accumulation in the cells. Compounds of the present disclosure at an appropriate concentration were mixed with 10000 cells/well in white 96 well half area plates (Perkin Elmer) for 30 min at RT gently shaking. Agonist, NECA (R&D Technologies) at 12 nM was added to each well for 60 min at RT gently shaking. Detection reagents, d2-labeled cAMP (acceptor) and anti-cAMP cryptate (donor) were added to each well for 60 min at RT gently shaking. Plates were read on Pherastar (BMG Labtech), fluorescence ratio 665/620 was calculated and EC50 determination was performed by fitting the curve of percent of control versus the log of the compound concentration using GraphPad Prism.
# Sequence of Adenosine A2A (P29274 whole entry): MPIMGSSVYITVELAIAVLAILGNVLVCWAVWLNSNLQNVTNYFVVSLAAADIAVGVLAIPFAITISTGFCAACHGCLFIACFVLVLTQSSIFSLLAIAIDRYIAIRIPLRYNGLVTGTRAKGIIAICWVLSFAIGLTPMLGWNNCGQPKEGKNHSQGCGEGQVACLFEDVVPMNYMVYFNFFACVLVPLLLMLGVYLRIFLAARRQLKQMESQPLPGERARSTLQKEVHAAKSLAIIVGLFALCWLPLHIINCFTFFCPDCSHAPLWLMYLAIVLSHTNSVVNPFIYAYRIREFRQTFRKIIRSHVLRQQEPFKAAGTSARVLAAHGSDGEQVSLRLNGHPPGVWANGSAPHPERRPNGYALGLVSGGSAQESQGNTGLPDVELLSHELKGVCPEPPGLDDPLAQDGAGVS
structure (smiles),measurement,setting,value
"N#Cc1cccc(-c2nc(N)n3nc(Cn4nnnc4-c4cccc(N)c4)nc3c2-c2ccncn2)c1 [Example 1, 3-(5-amino-2-((5-(3-aminophenyl)-1H-tetrazol-1-yl)methyl)-8-(pyrimidin-4-yl)-[1,2,4]triazolo[1,5-c]pyrimidin-7-yl)benzonitrile]",Ki,Adenosine A2A,≤ 10 nM
same,EC50,[1],≤ 10 nM
"Cc1cccc(-c2nnnn2Cc2nc3c(-c4ccncn4)c(-c4cccc(C#N)c4)nc(N)n3n2)n1 [Example 2, 3-(5-amino-2-((5-(6-methylpyridin-2-yl)-1H-tetrazol-1-yl)methyl)-8-(pyrimidin-4-yl)-[1,2,4]triazolo[1,5-c]pyrimidin-7-yl)benzonitrile]",Ki,Adenosine A2A,≤ 10 nM
same,EC50,[1],≤ 10 nM
"COc1cccc(-c2nnnn2Cc2nc3c(-c4ccncn4)c(-c4cccc(C#N)c4)nc(N)n3n2)n1 [Example 3, 3-(5-amino-2-((5-(6-methoxypyridin-2-yl)-1H-tetrazol-1-yl)methyl)-8-(pyrimidin-4-yl)-[1,2,4]triazolo[1,5-c]pyrimidin-7-yl)benzonitrile]",Ki,Adenosine A2A,≤ 10 nM
same,EC50,[1],10 to 100 nM
"Cn1cc(-c2c(-c3cccc(C#N)c3)nc(N)n3nc(Cn4nnnc4-c4ccccn4)nc23)ccc1=O [Example 4, 3-(5-amino-8-(1-methyl-6-oxo-1,6-dihydropyridin-3-yl)-2-((5-(pyridin-2-yl)-1H-tetrazol-1-yl)methyl)-[1,2,4]triazolo[1,5-c]pyrimidin-7-yl)benzonitrile]",Ki,Adenosine A2A,≤ 10 nM
same,EC50,[1],10 to 100 nM
"Cn1cc(-c2c(-c3cccc(C#N)c3)nc(N)n3nc(Cn4nnnc4-n4cccn4)nc23)ccc1=O [Example 5, 3-(2-((5-(1H-pyrazol-1-yl)-1H-tetrazol-1-yl)methyl)-5-amino-8-(1-methyl-6-oxo-1,6-dihydropyridin-3-yl)-[1,2,4]triazolo[1,5-c]pyrimidin-7-yl)benzonitrile]",Ki,Adenosine A2A,≤ 10 nM
same,EC50,[1],10 to 100 nM
"Cn1cc(-c2c(-c3cccc(C#N)c3)nc(N)n3nc(Cn4nnnc4-c4cscn4)nc23)ccc1=O [Example 6, 3-(5-amino-8-(1-methyl-6-oxo-1,6-dihydropyridin-3-yl)-2-((5-(thiazol-4-yl)-1H-tetrazol-1-yl)methyl)-[1,2,4]triazolo[1,5-c]pyrimidin-7-yl)benzonitrile]",Ki,Adenosine A2A,≤ 10 nM
same,EC50,[1],10 to 100 nM
"Cn1cc(-c2c(-c3cccc(C#N)c3)nc(N)n3nc(Cn4nnnc4-c4ncccn4)nc23)ccc1=O [Example 7, 3-(5-amino-8-(1-methyl-6-oxo-1,6-dihydropyridin-3-yl)-2-((5-(pyrimidin-2-yl)-1H-tetrazol-1-yl)methyl)-[1,2,4]triazolo[1,5-c]pyrimidin-7-yl)benzonitrile]",Ki,Adenosine A2A,≤ 10 nM
same,EC50,[1],10 to 100 nM
"Cn1cc(-c2c(-c3cccc(C#N)c3)nc(N)n3nc(Cn4nnnc4-c4cnccn4)nc23)ccc1=O [Example 8, 3-(5-amino-8-(1-methyl-6-oxo-1,6-dihydropyridin-3-yl)-2-((5-(pyrazin-2-yl)-1H-tetrazol-1-yl)methyl)-[1,2,4]triazolo[1,5-c]pyrimidin-7-yl)benzonitrile]",Ki,Adenosine A2A,≤ 10 nM
same,EC50,[1],10 to 100 nM
"Cn1nc(-c2c(-c3cccc(C#N)c3)nc(N)n3nc(Cn4nnnc4-c4ccccn4)nc23)ccc1=O [Example 9, 3-(5-amino-8-(1-methyl-6-oxo-1,6-dihydropyridazin-3-yl)-2-((5-(pyridin-2-yl)-1H-tetrazol-1-yl)methyl)-[1,2,4]triazolo[1,5-c]pyrimidin-7-yl)benzonitrile]",Ki,Adenosine A2A,≤ 10 nM
same,EC50,[1],10 to 100 nM
"N#Cc1cccc(-c2nc(N)n3nc(Cn4nnnc4-c4ccccn4)nc3c2-c2ccncc2)c1 [Example 10, 3-(5-amino-2-((5-(pyridin-2-yl)-1H-tetrazol-1-yl)methyl)-8-(pyridin-4-yl)-[1,2,4]triazolo[1,5-c]pyrimidin-7-yl)benzonitrile]",Ki,Adenosine A2A,≤ 10 nM
same,EC50,[1],≤ 10 nM
"CN(C)c1cc(-c2c(-c3cccc(C#N)c3)nc(N)n3nc(Cn4nnnc4-c4ccccn4)nc23)ccn1 [Example 11, 3-(5-amino-8-(2-(dimethylamino)pyridin-4-yl)-2-((5-(pyridin-2-yl)-1H-tetrazol-1-yl)methyl)-[1,2,4]triazolo[1,5-c]pyrimidin-7-yl)benzonitrile]",Ki,Adenosine A2A,≤ 10 nM
same,EC50,[1],≤ 10 nM
"N#Cc1cccc(-c2nc(N)n3nc(Cn4nnnc4-c4ccccn4)nc3c2-c2ccnc(N)c2)c1 [Example 12, 3-(5-amino-8-(2-aminopyridin-4-yl)-2-((5-(pyridin-2-yl)-1H-tetrazol-1-yl)methyl)-[1,2,4]triazolo[1,5-c]pyrimidin-7-yl)benzonitrile]",Ki,Adenosine A2A,≤ 10 nM
same,EC50,[1],≤ 10 nM
"N#Cc1cccc(-c2nc(N)n3nc(Cc4c(F)cccc4-c4ccncc4)nc3c2-c2ccncc2)c1 [Example 13, 3-(5-amino-2-(2-fluoro-6-(pyridin-4-yl)benzyl)-8-(pyridin-4-yl)-[1,2,4]triazolo[1,5-c]pyrimidin-7-yl)benzonitrile]",Ki,Adenosine A2A,≤ 10 nM
same,EC50,[1],≤ 10 nM
"N#Cc1cccc(-c2nc(N)n3nc(Cc4c(F)cccc4-c4ccnc(N)c4)nc3c2-c2ccnc(N)c2)c1 [Example 14, 3-(5-amino-8-(2-aminopyridin-4-yl)-2-(2-(2-aminopyridin-4-yl)-6-fluorobenzyl)-[1,2,4]triazolo[1,5-c]pyrimidin-7-yl)benzonitrile]",Ki,Adenosine A2A,≤ 10 nM
same,EC50,[1],≤ 10 nM
"Cc1cccnc1CNc1nc2c(-c3ccc(=O)n(C)c3)c(-c3cccc(C#N)c3)nc(N)n2n1 [Example 15, 3-(5-amino-8-(1-methyl-6-oxo-1,6-dihydropyridin-3-yl)-2-(((3-methylpyridin-2-yl)methyl)amino)-[1,2,4]triazolo[1,5-c]pyrimidin-7-yl)benzonitrile]",Ki,Adenosine A2A,≤ 10 nM
same,EC50,[1],≤ 10 nM
"CCn1cc(-c2c(-c3cccc(C#N)c3)nc(N)n3nc(NCc4ncccc4C)nc23)ccc1=O [Example 16, 3-(5-amino-8-(1-ethyl-6-oxo-1,6-dihydropyridin-3-yl)-2-(((3-methylpyridin-2-yl)methyl)amino)-[1,2,4]triazolo[1,5-c]pyrimidin-7-yl)benzonitrile]",Ki,Adenosine A2A,≤ 10 nM
same,EC50,[1],≤ 10 nM
"Cc1cccnc1CNc1nc2c(-c3ccc(=O)n(C)n3)c(-c3cccc(C#N)c3)nc(N)n2n1 [Example 17, 3-(5-amino-8-(1-methyl-6-oxo-1,6-dihydropyridazin-3-yl)-2-(((3-methylpyridin-2-yl)methyl)amino)-[1,2,4]triazolo[1,5-c]pyrimidin-7-yl)benzonitrile]",Ki,Adenosine A2A,≤ 10 nM
same,EC50,[1],≤ 10 nM
"Cc1cccnc1COc1nc2c(-c3ccc(=O)n(C)c3)c(-c3cccc(C#N)c3)nc(N)n2n1 [Example 18, 3-(5-amino-8-(1-methyl-6-oxo-1,6-dihydropyridin-3-yl)-2-((3-methylpyridin-2-yl)methoxy)-[1,2,4]triazolo[1,5-c]pyrimidin-7-yl)benzonitrile]",Ki,Adenosine A2A,≤ 10 nM
same,EC50,[1],≤ 10 nM
"Cc1cccnc1COc1nc2c(-c3ccc(=O)n(C)n3)c(-c3cccc(C#N)c3)nc(N)n2n1 [Example 19, 3-(5-amino-8-(1-methyl-6-oxo-1,6-dihydropyridazin-3-yl)-2-((3-methylpyridin-2-yl)methoxy)-[1,2,4]triazolo[1,5-c]pyrimidin-7-yl)benzonitrile]",Ki,Adenosine A2A,≤ 10 nM
same,EC50,[1],≤ 10 nM
"Cc1cnccc1-c1c(-c2cccc(C#N)c2)nc(N)n2nc(OCc3ncccc3C)nc12 [Example 20, 3-(5-amino-2-((3-methylpyridin-2-yl)methoxy)-8-(3-methylpyridin-4-yl)-[1,2,4]triazolo[1,5-c]pyrimidin-7-yl)benzonitrile]",Ki,Adenosine A2A,≤ 10 nM
same,EC50,[1],≤ 10 nM
"Cc1cc(-c2c(-c3cccc(C#N)c3)nc(N)n3nc(OCc4ncccc4C)nc23)cc(C)n1 [Example 21, 3-(5-amino-8-(2,6-dimethylpyridin-4-yl)-2-((3-methylpyridin-2-yl)methoxy)-[1,2,4]triazolo[1,5-c]pyrimidin-7-yl)benzonitrile]",Ki,Adenosine A2A,≤ 10 nM
same,EC50,[1],10 to 100 nM
"CCn1cc(-c2c(-c3cccc(C#N)c3)nc(N)n3nc(OCc4ncccc4C)nc23)ccc1=O [Example 22, 3-(5-amino-8-(1-ethyl-6-oxo-1,6-dihydropyridin-3-yl)-2-((3-methylpyridin-2-yl)methoxy)-[1,2,4]triazolo[1,5-c]pyrimidin-7-yl)benzonitrile]",Ki,Adenosine A2A,≤ 10 nM
same,EC50,[1],10 to 100 nM
